The values that follow come from ChEMBL document CHEMBL1201862, “PubChem BioAssay data set” (2004).

Holding throughout (experiment): DTP human tumour cell line panel, 48 h
Assay [1] deals with DU-145.
Assay [2] has as its system UO-31.
For assay [3], the system named is MDA-MB-231.
In assay [4] the test system is COLO 205.
For assay [5], the system named is SK-OV-3.
Assay [6] deals with Malme-3M.
Assay [7] relates to M14.
The test system of assay [8] is SK-MEL-28.
Assay [9] deals with SNB-75.
Assay [10] deals with OVCAR-3.
In assay [11] the test system is HOP-62.
Assay [12] deals with PC-3.
Assay [13] has as its system NCI-H23.
Assay [14] has as its system SF-539.
Assay [15] deals with KM12.
Assay [16] relates to OVCAR-8.
Assay [17] has as its system 786-0.
In assay [18] the test system is HT-29.
Assay [19] concerns NCI/ADR-RES.
Assay [20] concerns ACHN.

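Where inhibition never reached the appropriate level, the endpoint shown equals the highest concentration tested. Otherwise, values were interpolated linearly from a five-concentration, 48-hour dose response in 96-well plates. At the GI50, growth is halved.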 Activity calls are given as the source filed them. No stated cut-off is given here; in the data, active = GI50 up to about 1.1 µM and inactive = higher. Bounds are passed on as bounds.

`O=C(O)c1cc2c(s1)C(=O)c1sccc1C2=O`: the GI50 in assay [1] was 2.33 µM (inactive); in [2], 5.98 µM (inactive); in assay [3], 9.73 µM (inactive); in assay [4], 17.2 µM (inactive); in assay [5], 20.6 µM (inactive); in assay [6] it was 0.659 µM (active). Besides, the GI50 in assay [7] is 1.43 µM (inactive); in assay [8], 1.9 µM (inactive); in assay [9], 1.82 µM (inactive); in assay [10] it was 4.81 µM (inactive); in assay [11], 6.11 µM (inactive); in [12], 9.82 µM (inactive). Besides, the GI50 was 2.2 µM (inactive) in [13]; 1.95 µM (inactive) in assay [14]; 8.07 µM (inactive) in [15]; 4.09 µM (inactive) in [16]; 8.34 µM (inactive) in assay [17]; 5.64 µM (inactive) in assay [18]. Moreover, the figures for the GI50 in assay [19] and in assay [20] were 5.4 µM (inactive) and 8.43 µM (inactive), respectively.
With `CC[C@@H]1CC[C@@H]2[C@H](CC[C@]3(C)[C@@H](O)CC[C@@H]23)[C@H]1CO`, the GI50 in assay [1] is > 100 µM (inactive); in assay [2], > 100 µM (inactive); in assay [3], > 100 µM (inactive); in assay [4] it was 79.8 µM (inactive); in assay [5], > 100 µM (inactive); in assay [6], > 100 µM (inactive). Also, the GI50 in assay [7] is > 100 µM (inactive); in [8] it was > 100 µM (inactive); in assay [9], 75.9 µM (inactive); in assay [10], > 100 µM (inactive); in assay [11], > 100 µM (inactive); in [12], 76.4 µM (inactive). For the same molecule, the GI50 in assay [13] is > 100 µM (inactive); in assay [14], > 100 µM (inactive); in [15] it was > 100 µM (inactive); in assay [16], > 100 µM (inactive); in [17], > 100 µM (inactive); in [18], 39.3 µM (inactive). In addition, the GI50 in assay [19] was 91.4 µM (inactive); in assay [20], > 100 µM (inactive).
On to `CN1CCN(c2ccc3nc(C4=C(O)C(=O)[C@@H]5C(=C4O)N=C(CO)N5C)[nH]c3n2)CC1`, for which the GI50 in assay [1] was > 100 µM (inactive); in [2], > 100 µM (inactive); in assay [3], 62.5 µM (inactive); in [4], 80.5 µM (inactive); in [5], > 100 µM (inactive); in assay [6], > 100 µM (inactive). The GI50 in assay [7] is > 100 µM (inactive); in assay [8] it was > 100 µM (inactive); in [9], 97.3 µM (inactive); in [10] it was 91 µM (inactive); in assay [11], > 100 µM (inactive); in [12] it was 69.8 µM (inactive). Moreover, the GI50 in assay [13] is > 100 µM (inactive); in assay [14], 33.5 µM (inactive); in assay [15], > 100 µM (inactive); in assay [16] it was 61.1 µM (inactive); in assay [17], > 100 µM (inactive); in assay [18], > 100 µM (inactive). Moreover, the GI50 in [19] and in assay [20] was > 100 µM (inactive) throughout.
Regarding `COc1cc(C(=O)N(C(=S)OC23CC4CC(CC(C4)C2)C3)c2ccccc2)cc(OC)c1OC`, the GI50 in assay [1] is 58.9 µM (inactive); in assay [2], 19.1 µM (inactive); in assay [3], 33.4 µM (inactive); in assay [4], 16.4 µM (inactive); in assay [5], 25.8 µM (inactive); in assay [6] it was 29.1 µM (inactive). The GI50 was 18.9 µM (inactive) in [7]; 30.5 µM (inactive) in [8]; 66.1 µM (inactive) in assay [9]; 28.1 µM (inactive) in assay [10]; 43.7 µM (inactive) in [11]; 22.6 µM (inactive) in assay [12]. Besides, the GI50 in assay [13] was 28 µM (inactive); in assay [14], 31.3 µM (inactive); in assay [15], 26.5 µM (inactive); in assay [16], 27 µM (inactive); in assay [17] it was 25.6 µM (inactive); in assay [18], 17.7 µM (inactive). Further, the results for the GI50 in assay [19] and in assay [20] were 22.8 µM (inactive) and 29.6 µM (inactive), respectively.
In the case of `c1ccc2c(c1)CC1c3[nH]c4ccccc4c3CCN21` (stereo not given), the GI50 in assay [1], in assay [2], in [3], in assay [4], in assay [5] and in assay [6] was > 10 µM (inactive) each time. The GI50 in assay [7], in assay [8], in [9], in assay [10], in assay [11] and in [12] was > 10 µM (inactive) throughout. Besides, the GI50 in assay [13], in assay [14], in [15], in [16], in [17] and in [18] was > 10 µM (inactive) each time. For the same molecule, the GI50 in assay [19] and in [20] was > 10 µM (inactive) in each case.
For `O=C(NC(=S)Nc1ccc(Br)cc1)c1ccc2c(c1)Sc1ccccc1O2`, the GI50 is > 100 µM (inactive) in assay [1]; 31.1 µM (inactive) in assay [2]; 58.6 µM (inactive) in [3]; > 100 µM (inactive) in assay [4]; 40.2 µM (inactive) in assay [5]; > 100 µM (inactive) in assay [6]. Further, the GI50 is > 100 µM (inactive) in assay [7]; > 100 µM (inactive) in assay [8]; 3.04 µM (inactive) in assay [9]; > 100 µM (inactive) in assay [10]; 79.8 µM (inactive) in assay [11]; > 100 µM (inactive) in assay [12]. The GI50 in assay [13] is > 100 µM (inactive); in [14] it was > 100 µM (inactive); in [15], > 100 µM (inactive); in assay [16], 50.1 µM (inactive); in assay [17], 51.5 µM (inactive); in assay [18], > 100 µM (inactive). For the same molecule, the GI50 in assay [19] is > 100 µM (inactive); in assay [20] it was 60.1 µM (inactive).
In the case of `c1ccc2c(c1)c1c(n2CCOCCN2CCOCC2)CCCC1`, the GI50 in assay [1] is > 100 µM (inactive); in assay [2] it was 27.1 µM (inactive); in assay [3], 17.3 µM (inactive); in assay [4] it was > 10 µM (inactive); in [5] it was 55.2 µM (inactive); in assay [6], 13.8 µM (inactive). In addition, the GI50 in [7] was 12.4 µM (inactive); in assay [8], 19.5 µM (inactive); in assay [9], 2.36 µM (inactive); in assay [10], 26.9 µM (inactive); in assay [11] it was 26.3 µM (inactive); in assay [12], 24.7 µM (inactive). Further, the GI50 in assay [13] is 32.3 µM (inactive); in assay [14] it was 86.1 µM (inactive); in assay [15], 31.8 µM (inactive); in assay [16], 36.7 µM (inactive); in assay [17], > 10 µM (inactive); in assay [18], 15.6 µM (inactive). The figures for the GI50 in assay [19] and in assay [20] were 16.3 µM (inactive) and 30.8 µM (inactive), respectively.
With `CSCCC(NCc1c(O)ccc2ccc(=O)oc12)C(=O)O` (stereo not given), the GI50 in assay [1], in [2], in [3], in assay [4], in assay [5] and in assay [6] was > 100 µM (inactive) in each case. Further, the GI50 is > 100 µM (inactive) in assay [7]; > 100 µM (inactive) in assay [8]; 16.9 µM (inactive) in assay [9]; > 100 µM (inactive) in assay [10]; > 100 µM (inactive) in assay [11]; > 100 µM (inactive) in assay [12]. The GI50 in assay [13], in [14], in assay [15], in assay [16], in assay [17] and in [18] was > 100 µM (inactive) each time. The GI50 in assay [19] and in assay [20] was > 100 µM (inactive) throughout.
With `CC1(C)OC2OC(C(COS(=O)(=O)C(F)(F)F)N=[N+]=[N-])C(OC(=O)c3ccccc3)C2O1` (stereo not given), the GI50 in assay [1], in assay [2], in [3], in assay [4], in assay [5] and in [6] was > 100 µM (inactive) in each case. The GI50 is > 100 µM (inactive) in assay [7]; > 100 µM (inactive) in assay [8]; 53.1 µM (inactive) in assay [9]; > 100 µM (inactive) in assay [10]; > 100 µM (inactive) in [11]; > 100 µM (inactive) in assay [12]. Also, the GI50 in assay [13], in assay [14], in assay [15], in [16], in assay [17] and in assay [18] was > 100 µM (inactive) throughout. The GI50 in assay [19] and in [20] was > 100 µM (inactive) in each case.
With `CC(C)CCCCCCCCCCCCC(=O)NCC(=O)NC1C(C)OC(Nc2[nH]cnc3ncnc2-3)C(O)C1O` (stereo not given), the GI50 in assay [1] is 0.0022 µM (active); in assay [2], 0.000381 µM (active); in assay [3] it was < 0.01 µM (active); in assay [4] it was 0.000622 µM (active); in assay [5], < 0.01 µM (active); in [6] it was 0.000332 µM (active). Besides, the GI50 in assay [7] was 0.000487 µM (active); in assay [8], < 0.01 µM (active); in assay [9] it was 0.000535 µM (active); in assay [10], 0.000173 µM (active); in assay [11], 0.000361 µM (active); in assay [12], 0.00433 µM (active). Moreover, the GI50 was 0.00536 µM (active) in assay [13]; 0.000931 µM (active) in assay [14]; 0.000341 µM (active) in assay [15]; 0.000153 µM (active) in assay [16]; 0.000491 µM (active) in assay [17]; 0.00125 µM (active) in [18]. Also, the values for the 50% growth inhibitory concentration (GI50) in assay [19] and in [20] were 0.00221 µM (active) and 0.000468 µM (active), respectively.
